Experimental data reported in patent EP4509511A1, “SUBSTITUTED SPIRO-ISOXAZOLINYL LACTAMS, SALTS THEREOF AND THEIR USE AS HERBICIDALLY ACTIVE SUBSTANCES” (Bayer Aktiengesellschaft, priority 2023, dated 2025).

What was measured:
MATIN [1] = test: Herbicidal pre-emergence action - Part I; assay type: in vivo, Matricaria inodora; conditions: visual grading after ca. 3 weeks vs untreated controls
Source text: (§1) Seeds of mono- and dicotyledonous weed plants were sown in plastic pots (double sowings with one species of mono- and one species of dicotyledonous weed plants per pot), in sandy loam, and covered with soil. The compounds according to the invention, formulated in the form of wettable powders (WP) or as emulsifiable concentrates (EC), were applied to the surface of the covering soil as aqueous suspension or emulsion, with the addition of 0.5% of an additive, at an application rate of 600 1 of water per hectare (converted). Following treatment, the pots were placed in a greenhouse and kept under optimum growth conditions for the test plants. The visual grading of the damage to the test plants was carried out after ca. 3 weeks in comparison to untreated controls (herbicidaleffectinpercent(%):100%effect=plantshavediedoff,0%effect=ascontrolplants). [formula]
(§2) Tables A1 to A12, below, show the effects of selected compounds of the general formula (I) according to table 1 on various harmful plants and an application rate corresponding to 1280 g/ha or below obtained by the experimental procedure mentioned above. Table A1: pre-emergence activity at 1280g/ha against ABUTH in %

MATIN [2] = test: Herbicidal post-emergence action - Part I; assay type: in vivo, Matricaria inodora; conditions: 1280 g/ha, one-leaf stage, rated visually after about 3 weeks vs untreated controls
Protocol: (§3) Seeds of mono- and dicotyledonous weed plants were placed in plastic pots in sandy loam soil (doubly sown with in each case one species of mono- or dicotyledonous weed plants per pot), covered with soil and cultivated in a greenhouse under controlled growth conditions. 2 to 3 weeks after sowing, the test plants were treated at the one-leaf stage. The compounds of the invention, formulated in the form of wettable powders (WP) or as emulsion concentrates (EC), were applied onto the green parts of the plants as aqueous suspension or emulsion with addition of 0.5% additive at a water application rate of 600 liters per hectare (converted). After the test plants had been kept in the greenhouse under optimum growth conditions for about 3 weeks, the activity of the preparations was rated visually in comparison to untreated controls. For example, 100% activity = the plants have died, 0% activity = like control plants. Tables B1 to B12, below, show the effects of selected compounds of the general formula (I) according to table 1 on various harmful plants and an application rate corresponding to 1280 g/ha or below obtained by the experimental procedure mentioned above. Table B1a: post-emergence activity at 1280g/ha against ABUTH in %

LOLRI [3] = test: Herbicidal pre-emergence action - Part I; assay type: in vivo, Lolium rigidum; conditions: visual grading after ca. 3 weeks vs untreated controls
Source text: as §1, §2

KCHSC [4] = test: Herbicidal pre-emergence action - Part I; assay type: in vivo, Kochia scoparia
Source text: as §1, §2

ABUTH = test: Herbicidal post-emergence action - Part I; assay type: in vivo, Abutilon theophrasti; conditions: one-leaf stage, rated visually after about 3 weeks vs untreated controls
Protocol: as §3

SETVI [5] = test: Herbicidal post-emergence action - Part I; assay type: in vivo, Setaria viridis; conditions: one-leaf stage, rated visually after about 3 weeks vs untreated controls
Protocol: as §3

DIGSA [6] = test: Herbicidal pre-emergence action - Part I; assay type: in vivo, Digitaria sanguinalis; conditions: visual grading after ca. 3 weeks vs untreated controls
Source text: as §1, §2

KCHSC [7] = test: Herbicidal post-emergence action - Part I; assay type: in vivo, Kochia scoparia; conditions: one-leaf stage, rated visually after about 3 weeks vs untreated controls
Summary of the method: (§4)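 Activity was scored visually as % damage (100% = dead, 0% = like untreated) about 3 weeks after treatment. Plants at the one-leaf stage, 2-3 weeks old, were sprayed with WP/EC formulations plus 0.5% additive (600 L/ha water, up to 1280 g/ha). Plants were grown in sandy loam in a greenhouse.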

AMARE [8] = test: Herbicidal post-emergence action - Part I; assay type: in vivo, Amaranthus retroflexus; conditions: one-leaf stage, rated visually after about 3 weeks vs untreated controls
Summary of the method: as §4

POAAN [9] = test: Herbicidal pre-emergence action - Part I; assay type: in vivo, Poa annua; conditions: visual grading after ca. 3 weeks vs untreated controls
Source text: as §1, §2

ECHCG [10] = test: Herbicidal post-emergence action - Part I; assay type: in vivo, Echinochloa crus-galli; conditions: 1280 g/ha, one-leaf stage, rated visually after about 3 weeks vs untreated controls
Protocol: as §3

AMARE [11] = test: Herbicidal pre-emergence action - Part I; assay type: in vivo, Amaranthus retroflexus; conditions: visual grading after ca. 3 weeks vs untreated controls
Summary of the method: (§5)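 Seeds are sown and covered with sandy loam soil, one monocot and one dicot weed species per pot. The test compound (WP or EC, 0.5% additive, 600 l/ha) is then applied to the soil surface at up to 1280 g/ha. Pots are kept in a greenhouse and injury is rated visually after ca. 3 weeks.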

ALOMY [12] = test: Herbicidal post-emergence action - Part I; assay type: in vivo, Alopecurus myosuroides; conditions: one-leaf stage, rated visually after about 3 weeks vs untreated controls
Protocol: as §3

SETVI [13] = test: Herbicidal pre-emergence action - Part I; assay type: in vivo, Setaria viridis; conditions: visual grading after ca. 3 weeks vs untreated controls
Source text: as §1, §2

ECHCG [14] = test: Herbicidal pre-emergence action - Part I; assay type: in vivo, Echinochloa crus-galli; conditions: visual grading after ca. 3 weeks vs untreated controls
Summary of the method: as §5

STEME [15] = test: Herbicidal post-emergence action - Part I; assay type: in vivo, Stellaria media; conditions: one-leaf stage, rated visually after about 3 weeks vs untreated controls
Summary of the method: as §4

VERPE = test: Herbicidal post-emergence action - Part I; assay type: in vivo, Veronica persica; conditions: one-leaf stage, rated visually after about 3 weeks vs untreated controls
Summary of the method: as §4

STEME [16] = test: Herbicidal pre-emergence action - Part I; assay type: in vivo, Stellaria media; conditions: visual grading after ca. 3 weeks vs untreated controls
Summary of the method: as §5

POAAN [17] = test: Herbicidal post-emergence action - Part I; assay type: in vivo, Poa annua; conditions: one-leaf stage, rated visually after about 3 weeks vs untreated controls
Protocol: as §3

DIGSA [18] = test: Herbicidal post-emergence action - Part I; assay type: in vivo, Digitaria sanguinalis; conditions: 1280 g/ha, one-leaf stage, rated visually after about 3 weeks vs untreated controls
Protocol: as §3

LOLRI [19] = test: Herbicidal post-emergence action - Part I; assay type: in vivo, Lolium rigidum; conditions: one-leaf stage, rated visually after about 3 weeks vs untreated controls
Protocol: as §3

ALOMY [20] = test: Herbicidal pre-emergence action - Part I; assay type: in vivo, Alopecurus myosuroides; conditions: visual grading after ca. 3 weeks vs untreated controls
Source text: as §1, §2

[21] = Table A10a, 1280 g/ha, visual grading after ca. 3 weeks vs untreated controls

| SMILES | pre-emergence activity at 320g/ha against MATIN in % (MATIN [1]) [%] | pre-emergence activity at 1280g/ha against MATIN in % (MATIN [1]) [%] | pre-emergence activity at 1280g/ha against LOLRI in % (LOLRI [3]) [%] | pre-emergence activity at 1280g/ha against KCHSC in % (KCHSC [4]; [21]) [%] | post-emergence activity at 1280g/ha against SETVI in % (SETVI [5]) [%] | pre-emergence activity at 1280g/ha against DIGSA in % (DIGSA [6]) [%] | post-emergence activity at 1280g/ha against KCHSC in % (KCHSC [7]) [%] | post-emergence activity at 1280g/ha against AMARE in % (AMARE [8]) [%] | pre-emergence activity at 320g/ha and against POAAN in % (POAAN [9]) [%] | pre-emergence activity at 1280g/ha and against POAAN in % (POAAN [9]) [%] | post-emergence activity at 1280g/ha against ECHCG in % (ECHCG [10]) [%] | pre-emergence activity at 1280g/ha against AMARE in % (AMARE [11]) [%] | pre-emergence activity at 1280g/ha and against SETVI in % (SETVI [13]) [%] | pre-emergence activity at 320g/ha against ECHCG in % (ECHCG [14]) [%] | pre-emergence activity at 1280g/ha against ECHCG in % (ECHCG [14]) [%] | post-emergence activity at 1280g/ha against STEME in % (STEME [15]) [%] | post-emergence activity at 1280g/ha against VERPE in % (VERPE) [%] | pre-emergence activity at 320g/ha against STEME in % (STEME [16]) [%] | pre-emergence activity at 1280g/ha against STEME in % (STEME [16]) [%] | other results |
| --- | --- | --- | --- | --- | --- | --- | --- | --- | --- | --- | --- | --- | --- | --- | --- | --- | --- | --- | --- | --- |
| Cc1ccsc1C1=NOC2(CCCN(Cc3ccccc3F)C2=O)C1 (racemic) [Compound I-1, 7-(2-Fluorobenzyl)-3-(3-methyl-2-thienyl)-1-oxa-2,7-diazaspiro[4.5]dec-2-en-6-one] | 90 | 100 | 90 | 90 | 90 | 100 | 90 | 90 | 100 | 100 | 90 | 90 | 100 | 100 | 100 | 90 | 90 | 90 | 90 | post-emergence activity at 1280g/ha against MATIN in % (MATIN [2]): 90%; pre-emergence activity at 1280g/ha against KCHSC in % (KCHSC [4]; Table A10b, title 1280g/ha, application rate column prints 320 g/ha, visual grading after ca. 3 weeks vs untreated controls): 90%; post-emergence activity at 320g/ha against ABUTH in % (ABUTH; 320 g/ha): 90%; post-emergence activity at 1280g/ha against ABUTH in % (ABUTH; 1280 g/ha): 90%; post-emergence activity at 320g/ha against SETVI in % (SETVI [5]; 320 g/ha): 90%; post-emergence activity at 320g/ha against KCHSC in % (KCHSC [7]; 320 g/ha): 90%; pre-emergence activity at 320g/ha against AMARE in % (AMARE [11]; 320 g/ha): 90%; post-emergence activity at 1280g/ha against ALOMY in % (ALOMY [12]): 90%; pre-emergence activity at 320g/ha and against SETVI in % (SETVI [13]; 320 g/ha): 100%; post-emergence activity at 320g/ha against STEME in % (STEME [15]; 320 g/ha): 90%; post-emergence activity at 320g/ha against VERPE in % (VERPE; 320 g/ha): 90%; pre-emergence activity at 80g/ha against STEME in % (STEME [16]; 80 g/ha): 90%; post-emergence activity at 80g/ha against POAAN in % (POAAN [17]; 80 g/ha): 90%; post-emergence activity at 320g/ha against POAAN in % (POAAN [17]; 320 g/ha): 90%; post-emergence activity at 1280g/ha against POAAN in % (POAAN [17]; 1280 g/ha): 90% |
| N#Cc1ncccc1C1=NOC2(CCN(Cc3ccccc3F)C2=O)C1 (racemic) [Compound I-35] | 90 | 90 | 90 | 90 | 90 | 100 | 90 | 90 | 100 | 100 | 90 | 90 | 100 | 90 | 100 | 90 | 90 | 90 | 90 | post-emergence activity at 1280g/ha against DIGSA in % (DIGSA [18]): 90%; pre-emergence activity at 320g/ha against LOLRI in % (LOLRI [3]; 320 g/ha): 90%; pre-emergence activity at 1280g/ha against KCHSC in % (KCHSC [4]; 1280 g/ha, 504 h): 90%; pre-emergence activity at 320g/ha against DIGSA in % (DIGSA [6]; 320 g/ha): 100%; post-emergence activity at 320g/ha against AMARE in % (AMARE [8]; 320 g/ha): 90%; post-emergence activity at 1280g/ha against LOLRI in % (LOLRI [19]): 90%; pre-emergence activity at 1280g/ha against ALOMY in % (ALOMY [20]): 90% |
